From patent US20260109707A1, “HETEROBIFUNCTIONAL COMPOUNDS AND METHODS OF TREATING DISEASE” (Halda Therapeutics OpCo. Inc., priority 2022, published 2026)

Key:
[1] = test system: T-Rex 293 cell line SC3 cells having increased expression of androgen receptor protein due to exposure to doxycycline; assay: Cellular growth inhibition assay, T-Rex 293 SC3 cells with doxycycline (CellTiter-Glo, 72 hours); format: cell-based; details: 72 h, T-Rex 293 SC3 cells with increased androgen receptor expression due to doxycycline (10 ng/mL)
How it was run: (§1)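 Doxycycline (10 ng/mL) was either included or omitted to toggle wild-type androgen receptor expression in SC3 cells, a T-Rex 293 clone, grown in stripped-serum, phenol red-free medium. After 72 hours with compound, viable cells were quantified by CellTiter-Glo 2.0.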

VCaP cells = assay: Cellular growth inhibition assay for VCaP cells (CellTiter-Glo, 72 hours); format: cell-based, human; details: Homo sapiens, VCaP, 72 h
How it was run: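 Luminescent viability signal after 72 h of compound exposure gave GI50 values by four-parameter nonlinear regression. Compounds were added in 0.5% DMSO to cells plated 24 h earlier at 5000/well in DMEM containing 10% FBS.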

[2] = test system: T-Rex 293 cell line SC3 cells lacking increased expression of androgen receptor protein; assay: Cellular growth inhibition assay, T-Rex 293 SC3 cells without doxycycline (CellTiter-Glo, 72 hours); format: cell-based; details: 72 h, T-Rex 293 cell line SC3 cells not exposed to doxycycline (lacking increased androgen receptor expression)
How it was run: as §1

T47D cells = assay: Cellular growth inhibition assay for T47D cells (CellTiter-Glo, 72 hours); format: cell-based, human; details: Homo sapiens, T47D, 72 h, 72 hours treatment
How it was run: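 Luminescence from CellTiter-Glo 2.0 after 72 h of compound exposure gives the viability signal. Cells grew in insulin-supplemented (0.2 units/mL) DMEM with 10% FBS and were treated one day after seeding at 0.5% DMSO. GI50 values come from four-parameter nonlinear regression.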

SMILES	GI50 [1]	GI50 (VCaP cells)	GI50 [2]	GI50 (T47D cells)
CCNC(=O)C[C@@H]1N=C(c2ccc(OC3CN(c4ccc(C(=O)N[C@H]5CC[C@H](Oc6ccc(C#N)c(Cl)c6)CC5)nn4)C3)cc2)c2c(sc(C)c2C)-n2c(C)nnc21 [I-47]	< 500 nM	500 to 1500 nM	500 to 1500 nM	500 to 1500 nM
Cc1sc2c(c1C)C(c1ccc(CCC[C@H]3CCCN(c4ccc(C(=O)N[C@H]5CC[C@H](Oc6ccc(C#N)c(Cl)c6)CC5)nn4)C3)cc1)=N[C@@H](C)c1nnc(C)n1-2 [I-323]	< 500 nM	< 500 nM	500 to 1500 nM	500 to 1500 nM
Cc1sc2c(c1C)C(c1ccc([C@H]3CC[C@@]4(C3)CN(c3ccc(C(=O)N[C@H]5CC[C@H](Oc6ccc(C#N)c(Cl)c6)CC5)nn3)CCO4)cc1)=N[C@@H](Cc1ncco1)c1nnc(C)n1-2 [I-364]	< 500 nM	< 500 nM	> 3000 nM	< 500 nM
Cc1sc2c(c1C)C(c1ccc([C@H]3CCN(C(=O)[C@@H]4CCCN(c5ccc(C(=O)N[C@H]6CC[C@H](Oc7ccc(C#N)c(Cl)c7)CC6)nn5)C4)C3)cc1)=N[C@@H](Cc1ncco1)c1nnc(C)n1-2 [I-342]	< 500 nM	< 500 nM	< 500 nM	< 500 nM
Cc1sc2c(c1C)C(c1ccc(CC3CN(CC4CCN(c5ccc(C(=O)N[C@H]6CC[C@H](Oc7ccc(C#N)c(Cl)c7)CC6)nn5)CC4)C3)cc1)=N[C@H](Cc1ncco1)c1nnc(C)n1-2 [I-114]	< 500 nM	500 to 1500 nM	1500 to 3000 nM	500 to 1500 nM
Cc1sc2c(c1C)C(c1ccc(N3CC4(C3)CC3(CCN(c5ccc(C(=O)N[C@H]6CC[C@H](Oc7ccc(C#N)c(Cl)c7)CC6)nn5)CC3)C4)cc1)=N[C@@H](Cc1ncco1)c1nnc(C)n1-2 [I-348]	< 500 nM	< 500 nM	> 3000 nM	< 500 nM
Cc1sc2c(c1C)C(c1ccc(C(=O)N3CCN(C(=O)c4ccc(C(=O)N[C@H]5CC[C@H](Oc6ccc(C#N)c(Cl)c6)CC5)nn4)CC3)cc1)=N[C@@H](Cc1ncco1)c1nnc(C)n1-2 [I-238]	> 3000 nM	> 3000 nM	> 3000 nM	> 3000 nM
Cc1sc2c(c1C)C(c1ccc(N3CCC4(CCCN(c5ccc(C(=O)N[C@H]6CC[C@H](Oc7ccc(C#N)c(Cl)c7)CC6)nn5)C4)CC3)cc1)=N[C@@H](Cc1ncco1)c1nnc(C)n1-2 [I-367]	< 500 nM	< 500 nM	< 500 nM	< 500 nM
Cc1sc2c(c1C)C(c1ccc([C@H]3C[C@@H](C4CCN(c5ccc(C(=O)N[C@H]6CC[C@H](Oc7ccc(C#N)c(Cl)c7)CC6)nn5)CC4)C3)cc1)=N[C@@H](Cc1ncco1)c1nnc(C)n1-2 [I-371]	> 3000 nM	> 3000 nM	> 3000 nM	> 3000 nM
Cc1sc2c(c1C)C(c1ccc(C#CC3CC4(C3)CN(c3ccc(C(=O)N[C@H]5CC[C@H](Oc6ccc(C#N)c(Cl)c6)CC5)nn3)C4)nc1)=N[C@@H](C)c1nnc(C)n1-2 [I-426]	< 500 nM	< 500 nM	< 500 nM	500 to 1500 nM
Cc1sc2c(c1C)C(c1ccc(C3CCC(N4CCCN(c5ccc(C(=O)N[C@H]6CC[C@H](Oc7ccc(C#N)c(Cl)c7)CC6)nn5)CC4)CC3)cc1)=N[C@H](Cc1ncco1)c1nnc(C)n1-2 (stereo partly drawn) [I-225]	< 500 nM	< 500 nM	< 500 nM	< 500 nM
Cc1sc2c(c1C)C(c1ccc(C(C)(C)C3CC4(CCCN(c5ccc(C(=O)N[C@H]6CC[C@H](Oc7ccc(C#N)c(Cl)c7)CC6)nn5)C4)C3)cc1)=N[C@@H](C)c1nnc(C)n1-2 (stereo partly drawn) [I-423]	< 500 nM	> 3000 nM	1500 to 3000 nM	500 to 1500 nM
Cc1sc2c(c1C)C(c1ccc([C@H]3C[C@H](C4CC5(CCN(c6ccc(C(=O)N[C@H]7CC[C@H](Oc8ccc(C#N)c(Cl)c8)CC7)nn6)CC5)C4)C3)cc1)=N[C@@H](Cc1ncco1)c1nnc(C)n1-2 [I-381]	> 3000 nM	> 3000 nM	> 3000 nM	> 3000 nM
CC1=NN=C2C1c1sc(C)c(C)c1C(c1ccc(C3CCC4(CC3)CCN(c3ccc(C(=O)N[C@H]5CC[C@H](Oc6ccc(C#N)c(Cl)c6)CC5)nn3)CC4)cc1)=N[C@H]2Cc1ncco1 (stereo partly drawn) [I-409]	> 3000 nM	> 3000 nM	> 3000 nM	> 3000 nM
Cc1sc2c(c1C)C(c1ccc(CCCN(C)C(=O)c3ccc(C(=O)N[C@H]4CC[C@H](Oc5ccc(C#N)c(Cl)c5)CC4)nn3)cc1)=N[C@@H](Cc1ncco1)c1nnc(C)n1-2 [I-305]	< 500 nM	< 500 nM	< 500 nM	< 500 nM
